Data: ChEMBL document CHEMBL1133694, “Hydroxamic acid derivatives as potent peptide deformylase inhibitors and antibacterial agents” (J Med Chem, 2000)
In brackets after ≈: the same amount, converted by molar mass. Values belong to the molecule of their own block, whether it stands above or below them.

What was measured:
[1] = test system: Mycoplasmoides pneumoniae; experiment: In vitro antibacterial activity against Mycoplasma pneumoniae ATCC 29342.; assay type: functional
Interstitial collagenase = target: T1, Interstitial collagenase (Homo sapiens, UniProt P03956); experiment: Inhibition of Matrix metalloprotease-1
T1 sequence (P03956 whole entry): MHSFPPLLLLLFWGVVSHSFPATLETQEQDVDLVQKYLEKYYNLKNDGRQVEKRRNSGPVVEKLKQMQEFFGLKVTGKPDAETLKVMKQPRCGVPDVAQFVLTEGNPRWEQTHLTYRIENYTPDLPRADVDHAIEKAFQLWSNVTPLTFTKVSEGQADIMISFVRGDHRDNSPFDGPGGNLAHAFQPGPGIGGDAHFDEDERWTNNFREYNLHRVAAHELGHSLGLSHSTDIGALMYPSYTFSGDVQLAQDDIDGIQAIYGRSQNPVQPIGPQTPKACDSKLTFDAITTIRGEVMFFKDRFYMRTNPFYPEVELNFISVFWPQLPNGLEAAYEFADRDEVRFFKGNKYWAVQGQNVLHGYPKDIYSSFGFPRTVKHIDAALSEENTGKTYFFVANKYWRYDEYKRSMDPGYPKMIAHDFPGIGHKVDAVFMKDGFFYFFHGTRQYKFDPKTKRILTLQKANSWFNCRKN

[2] = target: Macrophage metalloelastase (Homo sapiens, UniProt P39900); experiment: Inhibition of human Matrix metalloprotease-12
Pseudomonas aeruginosa = experiment: In vitro antibacterial activity against Pseudomonas aeruginosa ATCC 27853.; assay type: functional
Staphylococcus aureus = experiment: In vitro antibacterial activity against Staphylococcus aureus ATCC 25923.; assay type: functional
Escherichia coli [3] = experiment: In vitro antibacterial activity against Escherichia coli ATCC 25922.; assay type: functional
[4] = target: Angiotensin-converting enzyme (Homo sapiens, UniProt P12821)
Chlamydia pneumoniae = experiment: In vitro antibacterial activity against Chlamydia pneumoniae AR-39.; assay type: functional
Moraxella catarrhalis = experiment: In vitro antibacterial activity against isolated Moraxella catarrhalis RA21; assay type: functional
Collagenase 3 = Collagenase 3 (Homo sapiens, UniProt P45452); experiment: Inhibition of Matrix metalloprotease-13
Haemophilus influenzae = experiment: In vitro antibacterial activity against Haemophilus influenzae 11.; assay type: functional
Neprilysin [5] = target: T2, Neprilysin (Rattus norvegicus, UniProt P07861); experiment: Inhibitory activity against endopeptidase enzyme (NEP).
T2 sequence (P07861 whole entry): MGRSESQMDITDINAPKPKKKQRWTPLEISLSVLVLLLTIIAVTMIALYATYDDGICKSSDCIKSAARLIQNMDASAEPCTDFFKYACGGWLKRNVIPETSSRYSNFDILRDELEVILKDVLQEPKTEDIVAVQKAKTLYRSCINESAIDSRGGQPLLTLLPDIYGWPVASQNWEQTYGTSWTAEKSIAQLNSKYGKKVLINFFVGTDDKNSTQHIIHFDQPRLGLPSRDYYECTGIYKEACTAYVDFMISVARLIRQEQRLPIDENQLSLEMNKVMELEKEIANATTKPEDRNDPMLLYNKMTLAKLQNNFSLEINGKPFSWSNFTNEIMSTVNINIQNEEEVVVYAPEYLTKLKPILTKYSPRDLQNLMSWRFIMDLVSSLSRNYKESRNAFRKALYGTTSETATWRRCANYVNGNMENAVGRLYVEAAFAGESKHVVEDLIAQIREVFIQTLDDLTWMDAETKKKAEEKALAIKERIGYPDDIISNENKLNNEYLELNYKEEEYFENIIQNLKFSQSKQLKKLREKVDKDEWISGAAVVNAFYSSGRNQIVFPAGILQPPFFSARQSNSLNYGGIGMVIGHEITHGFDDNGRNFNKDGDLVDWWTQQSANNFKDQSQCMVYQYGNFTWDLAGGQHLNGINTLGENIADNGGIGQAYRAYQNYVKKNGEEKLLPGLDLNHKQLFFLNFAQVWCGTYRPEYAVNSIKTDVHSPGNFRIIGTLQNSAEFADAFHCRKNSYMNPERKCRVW

[6] = target: T3, Endothelin-converting enzyme 1 (Homo sapiens, UniProt P42892); experiment: Inhibitory activity against Endothelin-converting enzyme 1
T3 sequence (P42892 whole entry): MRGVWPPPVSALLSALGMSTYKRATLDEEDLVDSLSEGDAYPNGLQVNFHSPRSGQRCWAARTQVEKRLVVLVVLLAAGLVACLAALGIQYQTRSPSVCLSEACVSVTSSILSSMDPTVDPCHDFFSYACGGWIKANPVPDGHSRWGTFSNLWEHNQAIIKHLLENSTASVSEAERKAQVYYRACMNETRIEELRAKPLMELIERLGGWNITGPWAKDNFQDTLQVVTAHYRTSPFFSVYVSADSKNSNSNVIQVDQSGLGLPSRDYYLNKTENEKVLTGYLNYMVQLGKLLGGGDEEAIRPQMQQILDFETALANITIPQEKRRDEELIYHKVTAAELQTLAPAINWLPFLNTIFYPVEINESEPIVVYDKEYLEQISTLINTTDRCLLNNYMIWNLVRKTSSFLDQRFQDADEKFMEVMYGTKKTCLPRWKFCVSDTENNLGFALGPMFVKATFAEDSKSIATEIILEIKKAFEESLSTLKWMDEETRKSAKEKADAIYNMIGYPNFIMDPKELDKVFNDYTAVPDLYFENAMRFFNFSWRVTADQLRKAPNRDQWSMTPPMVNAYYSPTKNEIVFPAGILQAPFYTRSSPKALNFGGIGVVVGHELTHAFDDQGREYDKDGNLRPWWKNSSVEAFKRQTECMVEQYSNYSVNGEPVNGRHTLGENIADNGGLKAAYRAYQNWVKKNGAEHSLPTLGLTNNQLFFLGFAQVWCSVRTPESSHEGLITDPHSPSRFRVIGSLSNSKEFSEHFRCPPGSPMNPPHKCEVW

Streptococcus pneumoniae [7] = experiment: In vitro antibacterial activity against Streptococcus pneumoniae ATCC 49619.; assay type: functional
Escherichia coli [8] = experiment: In vitro antibacterial activity against isolated Escherichia coli DC2; assay type: functional
Bacillus subtilis = experiment: In vitro antibacterial activity against Bacillus subtilis ATCC 585969.; assay type: functional
Streptococcus pneumoniae [9] = experiment: In vitro antibacterial activity against Streptococcus pneumoniae 1/1 (penicillin resistant).; assay type: functional
Enterococcus faecium = experiment: In vitro antibacterial activity against Enterococcus faecium vanA E25_1.; assay type: functional
Enterococcus faecalis = experiment: In vitro antibacterial activity against Enterococcus faecalis ATCC 29212.; assay type: functional
Neprilysin [10] = target: T2, Neprilysin; experiment: Inhibitory activity against neutral endopeptidase enzyme (NEP).
[11] = test system: peptide deformylase (Streptococcus pneumoniae); experiment: Inhibitory activity against PDF isolated from Streptococcus pneumoniae
[12] = Inhibitory activity against PDF isolated from Bacillus subtilis
[13] = test system: Stenotrophomonas maltophilia; experiment: In vitro antibacterial activity against Stenotrophomonas maltophilia 1AC739.; assay type: functional
Peptide deformylase = target: T4, Peptide deformylase (Escherichia coli, UniProt Q9JN24); experiment: Inhibitory activity against isolated Escherichia coli peptidyl deformylase (PDF) enzyme containing iron.
T4 sequence (Q9JN24 whole entry): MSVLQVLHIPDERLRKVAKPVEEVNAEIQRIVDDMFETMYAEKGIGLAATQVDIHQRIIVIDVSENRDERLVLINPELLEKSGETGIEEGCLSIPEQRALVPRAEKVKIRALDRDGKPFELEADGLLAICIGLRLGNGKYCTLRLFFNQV

Sequence of Angiotensin-converting enzyme (P12821 whole entry): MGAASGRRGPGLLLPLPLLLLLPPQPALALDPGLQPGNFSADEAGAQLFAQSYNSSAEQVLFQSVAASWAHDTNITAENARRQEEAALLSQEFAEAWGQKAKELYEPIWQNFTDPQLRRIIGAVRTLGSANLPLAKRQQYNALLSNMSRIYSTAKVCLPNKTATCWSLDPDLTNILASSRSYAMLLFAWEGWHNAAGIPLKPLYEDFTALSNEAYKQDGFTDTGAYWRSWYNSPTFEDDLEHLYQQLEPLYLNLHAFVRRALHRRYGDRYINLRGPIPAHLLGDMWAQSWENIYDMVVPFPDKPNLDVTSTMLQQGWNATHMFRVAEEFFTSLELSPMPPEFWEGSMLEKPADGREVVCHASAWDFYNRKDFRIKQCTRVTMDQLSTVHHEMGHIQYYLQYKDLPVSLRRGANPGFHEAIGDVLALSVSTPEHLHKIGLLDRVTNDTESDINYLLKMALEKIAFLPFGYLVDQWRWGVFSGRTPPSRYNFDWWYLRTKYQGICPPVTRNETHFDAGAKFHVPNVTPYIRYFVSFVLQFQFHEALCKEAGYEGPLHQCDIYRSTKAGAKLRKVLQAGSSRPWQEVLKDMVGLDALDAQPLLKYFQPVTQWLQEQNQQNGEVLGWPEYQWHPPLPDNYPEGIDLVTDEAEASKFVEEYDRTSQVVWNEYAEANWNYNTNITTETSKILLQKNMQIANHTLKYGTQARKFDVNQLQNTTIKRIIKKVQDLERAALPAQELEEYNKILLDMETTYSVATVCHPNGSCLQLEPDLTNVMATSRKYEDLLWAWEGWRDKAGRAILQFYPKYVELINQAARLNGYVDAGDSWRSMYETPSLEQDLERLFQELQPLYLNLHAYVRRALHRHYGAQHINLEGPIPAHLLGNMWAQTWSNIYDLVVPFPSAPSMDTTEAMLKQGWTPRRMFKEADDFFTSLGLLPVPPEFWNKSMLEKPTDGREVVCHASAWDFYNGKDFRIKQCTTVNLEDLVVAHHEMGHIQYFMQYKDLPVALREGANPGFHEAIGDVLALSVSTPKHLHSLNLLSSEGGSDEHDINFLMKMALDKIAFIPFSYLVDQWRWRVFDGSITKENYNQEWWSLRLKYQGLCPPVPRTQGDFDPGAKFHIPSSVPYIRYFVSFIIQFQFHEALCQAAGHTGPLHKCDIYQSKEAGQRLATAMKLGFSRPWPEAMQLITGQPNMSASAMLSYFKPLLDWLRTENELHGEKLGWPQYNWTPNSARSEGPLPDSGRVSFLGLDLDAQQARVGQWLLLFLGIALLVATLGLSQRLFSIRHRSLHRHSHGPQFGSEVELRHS
Sequence of Macrophage metalloelastase (P39900 whole entry): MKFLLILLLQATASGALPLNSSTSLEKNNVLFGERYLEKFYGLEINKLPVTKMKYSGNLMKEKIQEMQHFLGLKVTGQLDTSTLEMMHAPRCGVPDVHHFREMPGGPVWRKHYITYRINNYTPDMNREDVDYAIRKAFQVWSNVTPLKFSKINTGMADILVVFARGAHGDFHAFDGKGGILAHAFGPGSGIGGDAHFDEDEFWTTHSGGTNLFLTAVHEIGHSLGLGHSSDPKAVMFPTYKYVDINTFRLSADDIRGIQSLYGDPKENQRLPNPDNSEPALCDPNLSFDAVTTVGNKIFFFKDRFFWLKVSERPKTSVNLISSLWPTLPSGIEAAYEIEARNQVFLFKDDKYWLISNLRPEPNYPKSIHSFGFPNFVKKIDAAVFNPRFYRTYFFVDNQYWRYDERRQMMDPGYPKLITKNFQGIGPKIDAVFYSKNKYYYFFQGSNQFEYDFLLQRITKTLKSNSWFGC

SMILES: CCCC[C@H](CC(=O)NO)S(=O)(=O)c1ccccc1
MIC [1]: 0.5 µg/mL (≈ 1.75 µM)
IC50 (Interstitial collagenase): 150 nM
IC50 [2]: 42 nM
MIC (Pseudomonas aeruginosa): > 128 µg/mL
MIC (Staphylococcus aureus): 128 µg/mL (≈ 449 µM)
MIC (Escherichia coli [3]): 128 µg/mL (≈ 449 µM)
IC50 [4]: 34000 nM
MIC (Chlamydia pneumoniae): 0.5 µg/mL (≈ 1.75 µM)
MIC (Moraxella catarrhalis): < 0.25 µg/mL
IC50 (Collagenase 3): 79 nM
MIC (Haemophilus influenzae): 2 µg/mL (≈ 7.01 µM)
IC50 (Neprilysin [5]): 2500 nM
IC50 [6]: > 100000 nM
MIC (Streptococcus pneumoniae [7]): 128 µg/mL (≈ 449 µM)
MIC (Escherichia coli [8]): 2 µg/mL (≈ 7.01 µM)
MIC (Bacillus subtilis): 1 µg/mL (≈ 3.5 µM)

IC50 (Interstitial collagenase): 300 nM
IC50 [2]: 9 nM
IC50 [4]: > 100000 nM
MIC (Moraxella catarrhalis): 16 µg/mL (≈ 56.1 µM)
IC50 (Collagenase 3): 18 nM
IC50 (Neprilysin [5]): 15000 nM
IC50 [6]: > 100000 nM
MIC (Escherichia coli [8]): > 128 µg/mL
SMILES: CCCC[C@@H](CC(=O)NO)S(=O)(=O)c1ccccc1

SMILES: CCCCC(CC(=O)NO)S(=O)(=O)c1ccccc1 (stereo not drawn)
MIC (Streptococcus pneumoniae [9]): 128 µg/mL (≈ 449 µM)
MIC [1]: 1 µg/mL (≈ 3.5 µM)
MIC (Enterococcus faecium): > 128 µg/mL
MIC (Enterococcus faecalis): > 128 µg/mL
IC50 (Interstitial collagenase): 110 nM
IC50 [2]: 12 nM
MIC (Pseudomonas aeruginosa): > 128 µg/mL
IC50 (Neprilysin [10]): 18000 nM
IC50 [11]: 340 nM
MIC (Staphylococcus aureus): 256 µg/mL (≈ 897 µM)
MIC (Escherichia coli [3]): 128 µg/mL (≈ 449 µM)
IC50 [4]: 81000 nM
MIC (Chlamydia pneumoniae): 0.5 µg/mL (≈ 1.75 µM)
MIC (Moraxella catarrhalis): < 0.25 µg/mL
IC50 (Collagenase 3): 22 nM
MIC (Haemophilus influenzae): 4 µg/mL (≈ 14 µM)
IC50 [6]: > 50000 nM
IC50 [12]: 96 nM
MIC (Streptococcus pneumoniae [7]): 128 µg/mL (≈ 449 µM)
MIC (Escherichia coli [8]): 8 µg/mL (≈ 28 µM)
MIC [13]: 4 µg/mL (≈ 14 µM)
MIC (Bacillus subtilis): 1 µg/mL (≈ 3.5 µM)

MIC (Moraxella catarrhalis): > 32 µg/mL
MIC (Escherichia coli [8]): > 32 µg/mL
SMILES: CC(CC(=O)NO)S(=O)(=O)c1ccccc1 (stereo not drawn)

SMILES: CCCCC(CC(=O)NO)[S+]([O-])c1ccc(Br)cc1 (stereo not drawn)
IC50 (Peptide deformylase): 210 nM
MIC (Moraxella catarrhalis): < 0.125 µg/mL
MIC (Escherichia coli [8]): 1 µg/mL (≈ 2.87 µM)

SMILES: CCCCC(CC(=O)NO)S(=O)(=O)c1cccc(OC)c1 (stereo not drawn)
IC50 (Peptide deformylase): 86 nM
MIC (Moraxella catarrhalis): 2 µg/mL (≈ 6.34 µM)
MIC (Escherichia coli [8]): 16 µg/mL (≈ 50.7 µM)

SMILES: CCCCC(CC(=O)NO)S(=O)(=O)c1ccc(OC)cc1 (stereo not drawn)
IC50 (Peptide deformylase): 31 nM
MIC (Moraxella catarrhalis): 0.5 µg/mL (≈ 1.59 µM)
MIC (Escherichia coli [8]): 16 µg/mL (≈ 50.7 µM)

MIC (Moraxella catarrhalis): < 0.06 µg/mL
MIC (Escherichia coli [8]): 1 µg/mL (≈ 3.5 µM)
SMILES: CCCC[C@H](C(O)C(=O)NO)[S+]([O-])c1ccccc1 (stereo partly drawn)

MIC (Moraxella catarrhalis): 4 µg/mL (≈ 14 µM)
MIC (Escherichia coli [8]): 32 µg/mL (≈ 112 µM)
SMILES: CCCC[C@@H](C(O)C(=O)NO)[S+]([O-])c1ccccc1 (stereo partly drawn)

SMILES: CCCCCC(CC(=O)NO)S(=O)(=O)c1ccccc1 (stereo not drawn)
IC50 (Peptide deformylase): 140 nM
MIC (Moraxella catarrhalis): < 0.06 µg/mL
MIC (Escherichia coli [8]): 2 µg/mL (≈ 6.68 µM)

SMILES: CCCCC(CC(=O)NO)[S+]([O-])c1ccccc1 (stereo not drawn)
MIC (Streptococcus pneumoniae [9]): 64 µg/mL (≈ 238 µM)
MIC [1]: 0.25 µg/mL (≈ 0.928 µM)
MIC (Enterococcus faecium): > 128 µg/mL
MIC (Enterococcus faecalis): > 128 µg/mL
IC50 (Interstitial collagenase): 93 nM
MIC (Pseudomonas aeruginosa): > 128 µg/mL
IC50 (Neprilysin [10]): 2600 nM
IC50 [11]: 240 nM
MIC (Staphylococcus aureus): 16 µg/mL (≈ 59.4 µM)
MIC (Escherichia coli [3]): 32 µg/mL (≈ 119 µM)
IC50 [4]: > 100000 nM
MIC (Chlamydia pneumoniae): 0.25 µg/mL (≈ 0.928 µM)
MIC (Moraxella catarrhalis): < 0.25 µg/mL
MIC (Haemophilus influenzae): 1 µg/mL (≈ 3.71 µM)
IC50 [6]: > 100000 nM
IC50 [12]: 46 nM
MIC (Streptococcus pneumoniae [7]): 32 µg/mL (≈ 119 µM)
MIC (Escherichia coli [8]): 1 µg/mL (≈ 3.71 µM)
MIC [13]: < 0.25 µg/mL
MIC (Bacillus subtilis): 0.25 µg/mL (≈ 0.928 µM)

MIC (Moraxella catarrhalis): 4 µg/mL (≈ 13.6 µM)
MIC (Escherichia coli [8]): 64 µg/mL (≈ 218 µM)
SMILES: CCCCCCS(=O)(=O)C(CCCC)CC(=O)NO (stereo not drawn)

MIC (Moraxella catarrhalis): 2 µg/mL (≈ 5.49 µM)
MIC (Escherichia coli [8]): 16 µg/mL (≈ 43.9 µM)
SMILES: CCCCC(CC(=O)NO)S(=O)(=O)c1ccc(Br)cc1 (stereo not drawn)
